Data on twelve compounds can be found in patent US20260285853A1, “COMPOUNDS AND METHODS FOR MODULATING SPLICING” (REMIX THERAPEUTICS INC., priority 2023, published 2026).

For orientation: AC50 means the midpoint of the concentration-response curve, whichever way the signal moves. What is called IC50 is the midpoint of a concentration-inhibition curve. By GI50 is commonly meant the concentration giving 50% growth inhibition.

Assay type in all cases: cell-based
Assay [1] has as its system HTT mRNA. Briefly: Splicing RT-qPCR assay (THP), Table 2A. The settings on record: Table 2A (THP); for AC50: AJ mRNA increase, read-out: HTT AJ (increase in alternative junction mRNA, AC50); for IC50: CJ mRNA decrease, read-out: HTT CJ (decrease in canonical junction mRNA, IC50).
Assay [2] has as its system MYB mRNA. Briefly: Splicing RT-qPCR assay (THP), Table 2A. The note with it: Table 2A (THP); for AC50: AJ mRNA increase, read-out: MYB AJ (increase in alternative junction mRNA, AC50); for IC50: CJ mRNA decrease, read-out: MYB CJ (decrease in canonical junction mRNA, IC50).
In assay [3] the test system is HTT mRNA. Description: Gene panel canonical junction qPCR assay, decrease in CJ mRNA, Table 3. The note with it: decrease in canonical junction (CJ) mRNA, gene panel qPCR, Table 3. The procedure, abridged:
(§1)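 A673 (DMEM, 10% FBS, 15,000 cells/well) or K562 (IMDM, 10% FBS) cells treated 24 h at 37 °C with 11-point 3-fold dilutions, top 10 uM, DMSO ≤0.25%. Canonical exon-exon junction mRNA measured by RT-qPCR, normalized to GAPDH, GUSB or PPIA and DMSO (ΔΔCt); IC50 from 4-parameter logistic fit.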
For orientation: In qPCR the cycle at which signal appears reflects the starting amount.

Assay [4] concerns MYB mRNA. The assay is described as above. The note with it: decrease in canonical junction (CJ) mRNA, gene panel qPCR, Table 3. An outline of the steps: as §1
In assay [5] the test system is SH-SY5Y (human neuroblastoma) cells. Description: Cell viability, Cell Titer Glo 2.0 assay. The note with it: read-out: Viability SHSY5Y.3 GI50. An outline of the steps:
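Toxicity screen in SH-SY5Y cells. Compounds were serially diluted in DMSO and then in medium, giving 0.1% DMSO final. Viability was read with CellTiter-Glo 2.0 after 72 h at 37 °C, 5% CO2, against medium-only blank wells.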
Background: ATP-based viability assays read luminescence as a measure of living cells.

SMILES strings stand for the structures. Where a name gives a salt, the structure may show the parent alone.

On to `CCNC1CCN(c2ccc(C(=O)Nc3cc(CC(N)=O)c4nc(C)cn4c3)c3nn(C)cc23)CC1` [Compound 340, N-[8-(2-amino-2-oxo-ethyl)-2-methyl-imidazo[1,2-a]pyridin-6-yl]-4-[4-(ethylamino)-1-piperidyl]-2-methyl-indazole-7-carboxamide], for which the AC50 in the assay on HTT mRNA [1] is more than 10 µM; with MYB mRNA [2], more than 10000 nM. In addition, the IC50 in the assay on HTT mRNA [1] is more than 10 µM; in the assay on MYB mRNA [2] it was more than 10000 nM; in the assay with HTT mRNA [3], more than 10 µM; with MYB mRNA [4] it was more than 10000 nM. The concentration for 50% growth inhibition (GI50) in assay [5] is more than 10000 nM.

Regarding `CCNC1CCN(c2ccc(C(=O)Nc3cc(CC(=O)NC)c4nc(C)cn4c3)c3nn(C)cc23)CC1` [Compound 341, 4-(4-(ethylamino)piperidin-1-yl)-2-methyl-N-(2-methyl-8-(2-(methylamino)-2-oxoethyl)imidazo[1,2-a]-pyridin-6-yl)-2H-indazole-7-carboxamide bis(2,2,2-trifluoroacetate)], the values for the half-maximal activity concentration (AC50) in the assay with HTT mRNA [1] and in the assay on MYB mRNA [2] were more than 10 µM and 1000 to 10000 nM, respectively. For the same compound, the IC50 was 1 to 10 µM with HTT mRNA [1], more than 10000 nM in the assay with MYB mRNA [2], 1 to 10 µM in the assay on HTT mRNA [3] and more than 10000 nM in the assay on MYB mRNA [4]. Further, the GI50 in assay [5] is more than 10000 nM.

Turning to `CNC1CCN(c2cc(F)c(C(=O)Nc3cn4cc(C)nc(C)c4n3)c3nn(C)cc23)CC1` [Compound 342, N-(6,8-dimethylimidazo[1,2-a]pyrazin-2-yl)-6-fluoro-2-methyl-4-[4-(methylamino)-1-piperidyl]-indazole-7-carbox-amide], the AC50 in the assay on HTT mRNA [1] is 1 to 10 µM; in the assay on MYB mRNA [2], less than 100 nM. Besides, the IC50 is 1 to 10 µM with HTT mRNA [1], less than 100 nM in the assay on MYB mRNA [2], 1 to 10 µM in the assay on HTT mRNA [3] and less than 100 nM in the assay on MYB mRNA [4]. Moreover, in assay [5], the GI50 is 1000 to 10000 nM.

As for `CCNC1CCN(c2cc(F)c(C(=O)Nc3cn4cc(C)nc4c(F)c3OCC)c3nn(C)cc23)CC1` [Compound 343, N-(7-ethoxy-8-fluoro-2-methylimidazo [1,2-a]pyridin-6-yl)-4-(4-(ethylamino)piperidin-1-yl)-6-fluoro-2-methyl-2H-indazole-7-carboxamide hydrochloride], the results for the AC50 in the assay on HTT mRNA [1] and in the assay with MYB mRNA [2] were less than 0.1 µM and less than 100 nM, respectively. For the same compound, the IC50 is less than 0.1 µM with HTT mRNA [1], less than 100 nM in the assay with MYB mRNA [2], less than 0.1 µM with HTT mRNA [3] and less than 100 nM in the assay on MYB mRNA [4]. In addition, the GI50 in assay [5] was less than 100 nM.

With `CCNC1CCN(c2cc(F)c(C(=O)Nc3cc4c(C)nc(C)cn4c3)c3nn(C)cc23)CC1` [Compound 344, N-(1,3-dimethylpyrrolo[1,2-a]-pyrazin-7-yl)-4-[4-(ethylamino)-1-piperidyl]-6-fluoro-2-methyl-indazole-7-carboxamide], the values for the AC50 with HTT mRNA [1] and in the assay on MYB mRNA [2] were more than 10 µM and 100 to 1000 nM, respectively. Further, the IC50 with HTT mRNA [1] is more than 10 µM; in the assay with MYB mRNA [2], 100 to 1000 nM; in the assay on HTT mRNA [3] it was more than 10 µM; in the assay on MYB mRNA [4], 100 to 1000 nM. Moreover, the GI50 in assay [5] lay in the range of 1000 to 10000 nM.

In the case of `CCNC1CCN(c2ccc(C(=O)Nc3cc4c(C)nc(C)cn4c3)c3nn(C)cc23)CC1` [Compound 345, N-(1,3-dimethylpyrrolo[1,2-a]pyrazin-7-yl)-4-[4-(ethylamino)-1-piperidyl]-2-methyl-indazole-7-carboxamide], the AC50 is more than 10 µM with HTT mRNA [1] and more than 10000 nM in the assay on MYB mRNA [2]. In addition, the IC50 was more than 10 µM in the assay with HTT mRNA [1], 1000 to 10000 nM in the assay with MYB mRNA [2], more than 10 µM in the assay on HTT mRNA [3] and 1000 to 10000 nM in the assay with MYB mRNA [4]. Also, the GI50 in assay [5] lay in the range of 1000 to 10000 nM.

Regarding `CCNC1CCN(c2cc(F)c(C(=O)Nc3cn4cc(C5CC5)nc(C)c4n3)c3nn(C)cc23)CC1` [Compound 346, N-(6-cyclopropyl-8-methyl-imidazo[1,2-a]pyrazin-2-yl)-4-(4-(ethylamino)-piperidin-1-yl)-6-fluoro-2-methyl-2H-indazole-7-carboxamide bis(2,2,2-trifluoroacetate)], the AC50 is more than 10 µM in the assay on HTT mRNA [1] and more than 10000 nM with MYB mRNA [2]. The IC50 in the assay on HTT mRNA [1] was more than 10 µM; in the assay on MYB mRNA [2], more than 10000 nM; in the assay on HTT mRNA [3], more than 10 µM; in the assay with MYB mRNA [4], more than 10000 nM. Also, the GI50 in assay [5] is 1000 to 10000 nM.

On to `Cc1cn2cc(NC(=O)c3c(F)cc(N4CCC(N)CC4)c4cn(C)nc34)nc2c(C)n1` [Compound 347, 4-(4-aminopiperidin-1-yl)-N-(6,8-dimethylimidazo[1,2-a]pyrazin-2-yl)-6-fluoro-2-methyl-2H-indazole-7-carboxamide 2,2,2-trifluoroacetate], for which the AC50 is 1 to 10 µM with HTT mRNA [1] and less than 100 nM in the assay with MYB mRNA [2]. Also, the IC50 with HTT mRNA [1] is 1 to 10 µM; in the assay on MYB mRNA [2], less than 100 nM; with HTT mRNA [3] it was 1 to 10 µM; in the assay on MYB mRNA [4], less than 100 nM. Also, the GI50 in assay [5] fell in the range of 1000 to 10000 nM.

Regarding `CCNC1CCN(c2cc(Cl)c(C(=O)Nc3cn4cc(C)nc(C)c4n3)c3nn(C)cc23)CC1` [Compound 348, 6-chloro-N-(6,8-dimethylimidazo-[1,2-a]pyrazin-2-yl)-4-[4-(ethylamino)-1-piperidyl]-2-methyl-indazole-7-carboxamide], the AC50 in the assay with HTT mRNA [1] is more than 10 µM; in the assay with MYB mRNA [2], 100 to 1000 nM. In addition, the IC50 was more than 10 µM in the assay with HTT mRNA [1], 1000 to 10000 nM in the assay with MYB mRNA [2], more than 10 µM with HTT mRNA [3] and 1000 to 10000 nM in the assay on MYB mRNA [4]. Moreover, the GI50 in assay [5] fell in the range of 1000 to 10000 nM.

Turning to `Cc1cn2cc(NC(=O)c3c(F)cc(N4CCC(NC5CCC5)CC4)c4cn(C)nc34)nc2c(C)n1` [Compound 349, 4-[4-(cyclobutylamino)-1-piperid-yl]-N-(6,8-dimethyl-imidazo [1,2-a]-pyrazin-2-yl)-6-fluoro-2-methyl-indazole-7-carbox-amide], the AC50 was more than 10 µM in the assay with HTT mRNA [1] and less than 100 nM in the assay with MYB mRNA [2]. The IC50 with HTT mRNA [1] is more than 10 µM; in the assay on MYB mRNA [2], less than 100 nM; in the assay on HTT mRNA [3], more than 10 µM; in the assay with MYB mRNA [4], less than 100 nM. In assay [5], the GI50 was in the range of 100 to 1000 nM.

`CCNC1CCN(c2ccc(C(=O)Nc3cn4cc(CF)nc(C)c4n3)c3nn(C)cc23)CC1` [Compound 350, 4-[4-(ethylamino)-1-piperidyl]-N-[6-(fluoromethyl)-8-methyl-imidazo[1,2-a]pyrazin-2-yl]-2-methyl-indazole-7-carboxamide 2,2,2-trifluoroacetic acid]: the AC50 is more than 10 µM in the assay with HTT mRNA [1] and 100 to 1000 nM in the assay with MYB mRNA [2]. Moreover, the IC50 is more than 10 µM in the assay on HTT mRNA [1], 100 to 1000 nM with MYB mRNA [2], more than 10 µM in the assay with HTT mRNA [3] and 100 to 1000 nM in the assay with MYB mRNA [4]. The GI50 in assay [5] was in the range of 1000 to 10000 nM.

Take `CCNC1CCN(c2cc(F)c(C(=O)Nc3cn4cc(C)nc(OC)c4n3)c3nn(C)cc23)CC1` [Compound 351, 4-[4-(ethyl-amino)-1-piperidyl]-6-fluoro-N-(8-methoxy-6-methyl-imidazo[1,2-a]-pyrazin-2-yl)-2-methyl-indazole-7-carboxamide]: the AC50 with HTT mRNA [1] is more than 10 µM; in the assay on MYB mRNA [2], more than 10000 nM. For the same compound, the half-inhibitory concentration (IC50) in the assay on HTT mRNA [1] is more than 10 µM; with MYB mRNA [2], 1000 to 10000 nM; in the assay with HTT mRNA [3], more than 10 µM; in the assay with MYB mRNA [4] it was 1000 to 10000 nM. Besides, the GI50 in assay [5] was in the range of 1000 to 10000 nM.
